Assay results published in patent publication US9155752B2, “Liver function-improving agent” (UENO FINE CHEMICALS INDUSTRY, LTD., priority 2012, dated 2015).
“Also recorded” adds a separate entry of the source.

System: NASH mice
Assay: Sirius Red staining of liver, fibrosis area % (Test Example 3)
Type: in vivo
Conditions: for Fibrosis area % (Sirius Red staining), mean ± standard deviation: 8 weeks of age; for Fibrosis area %, Significant difference: Bonferroni, 5% level, tendency at 10% level
Source text: A solid diet CE-2 (lipid 4.6% by weight, manufactured by CLEA Japan, Inc.) was used as a normal diet. A solid diet, High Fat Diet 32 (lipid 32.0% by weight, sucrose 6.75% by weight, manufactured by CLEA Japan, Inc.), was used as a sucrose-containing high fat diet. As a maltitol-containing high-fat diet, a special diet (lipid 32.0% by weight, maltitol 6.08% by weight; manufactured by CLEA Japan, Inc.) obtained by replacing the total amount (6.75% by weight) of sucrose in a solid diet, High Fat Diet 32, with powdered maltitol (Whole Crystalline Maltitol Ueno 60M (purity of maltitol: 90%), manufactured by Ueno Fine Chemicals Industry Ltd.) was used. Sodium hypochlorite (PURELOX-S, manufactured by OYALOX Co., Ltd.) was added to pure water prepared by Elix-UV pure water producing apparatus, to a final concentration of 0.00009%, so that pure water for use in the test was obtained. An aqueous maltitol solution was prepared by dissolving powdered maltitol (Whole Crystalline Maltitol Ueno 60M (purity of maltitol: 90%), manufactured by Ueno Fine Chemicals Industry Ltd.) in pure water to a concentration of 1.8% (weight/volume). The purity of maltitol in the aqueous maltitol solution was 1.62%. Twenty-one female SPF mice (C57BL/6J, produced by CLEA Japan, Inc.) on day 14 of pregnancy were purchased and acclimation was performed. All animals were allowed to make a natural birth and a born male was used to produce a model. In addition, the weaning was at 4 weeks after birth. Streptozotocin (Sigma-Aldrich Japan K.K.) was adjusted to a concentration of 10 mg/mL with a physiological saline solution (manufactured by Otsuka Pharmaceutical Factory, Inc.) and the solution was subcutaneously administered once to the back of 2-day-old male mice at a dose of 20 μL/mouse (200 μg/mouse). Afterwards, the mother animal took care of the baby until weaning. The weaning was on day 28±2 after birth. After the weaning, a normal diet was supplied ad libitum to animals receiving no streptozotocin (normal mice (group S1 and group 1)), and a sucrose-containing high fat diet was supplied ad libitum to animals receiving streptozotocin (NASH mice (group S2, group 2, group 3, and group 4). A normal diet was supplied ad libitum to normal mice (group 1). With respect to NASH mice, a sucrose-containing high fat diet was supplied ad libitum to the sucrose group (group 2), and a maltitol-containing high fat diet was supplied ad libitum to the maltitol-low dose group (group 3) and the maltitol-high dose group (group 4). An aqueous maltitol solution was supplied ad libitum only to the maltitol-high dose group (group 4) of 5 to 8 weeks of age, and pure water was supplied ad libitum to the groups other than group 4 of 5 to 8 weeks of age. Six male animals per group were assigned to groups S1 and S2, reared up to 5 weeks of age, and then necropsied. Eight male animals per group were assigned to groups 1, 2, 3 and 4, reared up to 8 weeks of age, and then necropsied. At scheduled necropsy of the animals of 5 or 8 weeks of age, all individuals were anesthetized with diethyl ether (manufactured by Sigma-Aldrich Japan K.K.) and a needle through which heparin sodium (Novo Heparin Injection 1000, manufactured by Mochida Pharmaceutical Co., Ltd.) had been passed was punctured to the heart to aspirate the whole blood, leading to euthanasia, followed by harvest of the organ. […]

| Structure (SMILES) | Fibrosis area % (Sirius Red staining), mean ± standard deviation (Group 2, sucrose group: HFD32 (sucrose 6.75%) + pure water) | Fibrosis area %, Significant difference (Group 3 (low-dose maltitol) vs sucrose group (group 2)) | Fibrosis area % (Sirius Red staining), mean ± standard deviation (Group 3, low-dose maltitol: HFD32-M (maltitol 6.08%) + pure water) | Fibrosis area %, Significant difference (Group 4 (high-dose maltitol) vs sucrose group (group 2)) | Fibrosis area % (Sirius Red staining), mean ± standard deviation (Group 4, high-dose maltitol: HFD32-M (maltitol 6.08%) + aqueous maltitol solution 1.62%) |
| --- | --- | --- | --- | --- | --- |
| OC[C@H]1O[C@@](CO)(O[C@H]2O[C@H](CO)[C@@H](O)[C@H](O)[C@H]2O)[C@@H](O)[C@@H]1O [sucrose, reference compound] | 1.09 ± 0.23% |  |  |  |  |
| OC[C@@H](O)[C@@H](O[C@H]1O[C@H](CO)[C@@H](O)[C@H](O)[C@H]1O)[C@H](O)[C@@H](O)CO [maltitol] |  | tendency to be low; also recorded: Tendency to be different | 0.89 ± 0.15% | tendency to be low; also recorded: Tendency to be different | 0.86 ± 0.27% |
